Reference: patent publication US9255062B2, “Fatty acid derivatives for oral administration endowed with high palatability” (priority 2008, dated 2016)

Experiments:
[1] = system: Caco-2 cells; assay: Ussing chamber, short circuit current in Caco-2 monolayer, baseline conditions; type: cell-based, human; settings: Caco-2 in Ussing chamber; for decrease in short circuit current (ΔIsc), maximum effect: final concentration 10 mM; for decrease in short circuit current (ΔIsc), maximum effect / time of maximum decrease in Isc after addition: luminal (mucosal) side; for effect on tissue conductance: luminal side, measure of tissue integrity
Experimental: The experiments were carried out using a human intestinal cell line called Caco-2, obtained from the American Type Culture Collection (ATCC, Rockville, USA). These cells, 15 days after confluence, form a monolayer of enterocytes with morphological and functional features identical to those of ileal enterocytes at the apex of the villus (Berni Canani R, et al. Gastroenterology 2003; 124:368-76). Cells were grown in a culture medium consisting in Dulbecco's Modified Eagle's Medium (DMEM) containing glucose (4.5 g/L), 10% Fetal Calf Serum (FCS), 1% non-essential amino acids, 1% L-glutamine, 1% sodium pyruvate, streptomycin ([…]), penicillin ([…]), and were incubated at 37° C. in an atmosphere of 5% CO2 and […]. The culture medium was replaced every day.
For all the experiments were used cells at the 30th-40th pass, 2×10^6 cells per filter, grown on polycarbonate supports (pore size 0.4 μm, diameter 24.5 mm) for 15 days post-confluence. Each support containing the cells was mounted in an Ussing chamber (World Precision Instruments, Sarasota, Fla.) as a cellular monolayer between the luminal and the serosal compartments (Berni Canani R, et al. J. Pediatr. Gastroenterol. Nutr. 28: 315-320, 1999). The Ussing chamber system, allows through the measurement of defined electrical parameters, the study of transepithelial transport of water and electrolytes. These parameters consist in: 1) transepithelial potential difference (PD) and short circuit current (Isc), an expression of the transepithelial passage of ions; 2) resistance (RT) and, ionic conductance (G), a measure of tissue integrity. An absorptive-type stimulus on transepithelial transport induces a decrease in Isc, whereas a secretory-type stimulus induces an increase in Isc. The Isc is expressed in microamperes per square centimeter (μA/cm^2), conductance in millisiemens per square centimeter (mS/cm^2) and the transepithelial potential difference in millivolts (mV). Measurement of these electrical parameters is made possible by the presence of silver electrodes, placed proximally to both sides (serosal and luminal) of the cellular monolayer and connected with an automatic voltage system equipped with software for data acquisition and processing (DVC 1000, World Precision Instruments, Sarasota, Fla., USA). Each compartment contained 10 ml of Ringer's solution with the following composition (in mmol/L): NaCl, 114; KCl, 5; NaH2PO4, 0.3; Na2HPO4, 1.65; CaCl2, 1.25; MgCl2, 1.1; NaHCO3, 25; glucose, 10. The incubation liquid was circulated through the chamber by means of the flow of a gaseous mixture composed of 95% O2 and 5% CO2 and was maintained at a temperature of 37° C. by means of a thermostat (Berni Canani R. et al. J. Pediatr. Gastroenterol. Nutr. 28: 315-320, 1999). The study of changes in electrical parameters reflecting changes in transepithelial transport of water and electrolytes was carried out in baseline conditions and after administration of the compounds on the luminal side of the monolayer of Caco-2 cells.

[2] = in vivo; settings: both, Swiss, mouse, po
[3] = system: Swiss mice; settings: oral administration

In the case of CCCC(=O)[O-].[Na+] [sodium butyrate, reference compound], the “decrease in short circuit current (ΔIsc), maximum effect” value (shortened to “decrease … (ΔIsc), maximum effect”) [1] is reported as −0.8±0.2 μA/cm^2, the “time of maximum decrease in Isc after addition” value (“time of maximum decrease in Isc” for short) [1] is reported as “approximately 35 minutes” and the “effect on tissue conductance” value [1] is reported as “did not alter tissue conductance”.

For CCCC1=NC(=O)C(Cc2ccccc2)N1 (stereo not shown) [Compound 3, 5-benzyl-2-propyl-1H-imidazol-4(5H)-one], the LD50 [2] was 21600 mg/kg, the “decrease … (ΔIsc), maximum effect” value [1] was −1.1±0.1 μA/cm^2 and the “time of maximum decrease in Isc” value [1] was 50 min. The “effect on tissue conductance” value [1] was “absence of any significant changes in tissue conductance” and the “LD50 expressed as equivalent of butyric acid” value (from here on “LD50 expressed as equivalent”) [3] was 8.8 g.

CCCC(=O)O [butyric acid, reference compound] gave an LD50 [2] of 8800 mg/kg.

For CCCC(=O)NC(Cc1ccccc1)C(N)=O (stereo not shown) [Compound 1, N-(1-carbamoyl-2-phenyl-ethyl)butyramide], the LD50 [2] was 23800 mg/kg, the “decrease … (ΔIsc), maximum effect” value [1] was −0.9±0.3 μA/cm^2 and the “time of maximum decrease in Isc” value [1] was “approximately 40 minutes”. The “effect on tissue conductance” value [1] was “without interfering with the stability of tissue conductance” and the “LD50 expressed as equivalent” value [3] was 8.8 g.

For CCCC(=O)NC(=O)C(Cc1ccccc1)NC(=O)CCC (stereo not shown) [Compound 2, N-(1-butyroyl-carbamoyl-2-phenyl-ethyl)butyramide], the LD50 [2] was 16300 mg/kg, the “decrease … (ΔIsc), maximum effect” value [1] was −0.4±0.1 μA/cm^2 and the “time of maximum decrease in Isc” value [1] was 40 to 45 min. The “effect on tissue conductance” value [1] was “without interfering with the stability of tissue conductance” and the “LD50 expressed as equivalent” value [3] was 8.8 g.
